Assay results from patent US9233144B2, “Tyrosine kinase receptor TYRO3 as a therapeutic target in the treatment of cancer” (INSTITUT CURIE, priority 2008, dated 2016).

Columns and labels:
[1] = test system: MGH-U3, KK47, RT112 and J82 colonies; assay: Anchorage-independent colony formation in soft agar; format: cell-based, human; details: 50 nM siRNA, two weeks
Experimental: 2.10^4 50 nM siRNA-transfected cells in DMEM supplemented with 10% FCS and 0.3% agar, were added to triplicate wells containing medium and 0.8% agar on 12-well plates. The plates were incubated for two weeks and colonies with diameters greater than 50 μm were scored as positive, using a phase-contrast microscope equipped with a measuring grid. Results are the means+/−SD of two independent experiments carried out in triplicate.

TYRO3 [2] = assay: Efficiency of TYRO3 silencing after siRNA transfection (mRNA and western-blot); format: cell-based, human; details: MGH-U3, KK47, J82 and RT112 cells; 50 nM siRNA; 72 hours after transfection
Experimental: Cells were transfected with 50 nM siRNA (siRNA anti-TYRO3 (SEQ ID No. 1) or control siRNA (scramble, SEQ ID No. 2)) and the efficiency of TYRO3 silencing was assessed 72 hours after transfection by western-blot.

MGH-U3 xenografts = assay: Growth of MGH-U3 xenografts, siRNA treatment; format: in vivo, athymic nude mice
Experimental: Tumor-bearing mice were treated three times a week by intraperitoneal injection of 4 μg siRNA (control or TYRO3) (6 mice and 12 tumors per group) (The first injection corresponds to day 0). Tumor volume variations are represented on the graph of FIG. 12A. (Wilcoxon rank sum test: *, 0.05<p<0.01, **, 0.01<p<0.001, ***, p<0.001) Inset are pictures of representative tumors observed at the end of the treatment. The upper line tumors are those of TYRO3 siRNA treated mice. The middle line tumors are those of control siRNA treated mice. The lower line tumors are those of PBS treated mice. Tumors were weighted at the end of the experiment (FIG. 12B).
The role of this gene in bladder cancer cell growth in vivo was studied. J82 and MGH-U3 cells were implanted subcutaneously in athymic nude mice. Once tumors were established, mice were randomly selected for treatment with control or TYRO3-specific siRNAs. For J82 xenografts, two weeks after the beginning of treatment only three tumors out of 12 were still observed (FIGS. 11A and 11B). For MGH-U3 xenografts, after 21 days of treatment, tumor volume was 70% lower in mice treated with TYRO3 siRNA than in mice treated with control siRNA (Wilcoxon rank-sum test, p<0.001) (FIGS. 12A and 12B).

bladder cancer cells [3] = assay: TUNEL assay on transfected bladder cancer cells; format: cell-based, human; details: 50 nM siRNA; 72 hours after transfection
Experimental: 3×10^4 cells per well were seeded on a glass slide in a 24-well plate and transfected with 50 nM siRNA. DNA fragmentation was evaluated 72 hours after transfection, using a TUNEL (deoxynucleotidyl transferase (Tdt)-mediated nick-end labeling) assay detection Kit (Roche Diagnostic, Meylan, France) according to the manufacturer's instructions. The inventors analyzed 600 cells under a light microscope, determining the proportion of labeled cells.

bladder cancer cells [4] = assay: Cell cycle analysis by flow-cytometry 72 h post siRNA transfection; format: cell-based, human
Experimental: Results were analyzed using Fisher test, *** p<0.001, * 0.01<p<0.05

MCF7 cells = assay: Cell viability after siRNA transfection, control cell line with very low TYRO3 expression; format: cell-based, human
Experimental: (§1) After transfection as described in the legend of FIG. 4, cells were treated with trypsin 72 hours after transfection, stained with trypan blue and viable cells were counted in triplicate, using a Malassez hematocytometer. Results are the means+/−SD of two independent experiments carried out in triplicate.
(§2) In order to investigate the role of TYRO3 in cell growth and tumorigenic properties, TYRO3 expression was blocked using RNA interference technology or TYRO3 activity was inhibited using a blocking antibody directed against the extracellular domain of TYRO3 or a soluble receptor consisting of the recombinant extracellular domain of TYRO3 produced in bacteria. Two cell lines expressing TYRO3 (MGH-U3, KK47), two cell lines expressing both TYRO3 and GAS6 (J82, RT112) and one control breast cancer derived cell line presenting a very low TYRO3 expression level (MCF-7) were used. It was shown by western blot using an anti-phosphotyrosine antibody after TYRO3 immunoprecipitation that in each type of cell line (expressing or not GAS6), TYRO was activated (data not shown).

[5] = test system: MGH-U3, KK47, J82 and RT112 cells; assay: Cell viability after siRNA transfection (trypan blue count); format: cell-based, human; details: 50 nM siRNA, 72 hours after transfection
Experimental: as §1, §2

TYRO3 [6] = assay: TYRO3 mRNA levels in MGH-U3 xenografts by Q-RT-PCR; format: in vivo, athymic nude mice; details: 3 days after the last siRNA injection, Student's t-test p<0,001
Excerpt: FIG. 13 is a graph showing TYRO3 mRNA levels for MGH-U3 xenografts, 3 days after the last siRNA injection, divided by TBP (TATA binding protein) mRNA levels+/−SD in treated and control tumors, as assessed by Q-RT-PCR.

[7] = siRNA treated xenografts, data not shown

TYRO3 siRNA: siRNA anti-TYRO3 comprising the sequence of SEQ ID No. 1 (GGUGUGCCAUUUUUCACAGTT; chemistry not given here)
viable colonies in soft agar assays [1]: fewer viable | inhibition of TYRO3 mRNA and protein levels (TYRO3 [2]): 80-90% | tumor volume lower than in mice treated with control siRNA (MGH-U3 xenografts; MGH-U3 xenografts, after 21 days of treatment, 4 μg siRNA intraperitoneal three times a week, p<0.001): 70% | apoptosis in treated tumors (TUNNEL analysis) (MGH-U3 xenografts; [7]): increase apoptosis | histological difference between treated and control tumors (MGH-U3 xenografts; [7]): No histological difference | apoptotic rate (TUNEL) (bladder cancer cells [3]): increased apoptotic rate | change in cell-cycle progression (bladder cancer cells [4]): significant but low change | effect on viable cells (MCF7 cells): no effect | viable cells versus control siRNA [5]: fewer viable | TYRO3 mRNA levels in tumors (TYRO3 [6]): significant decrease
